System: rat uninephrectomized anti-Thy-1 nephritis model
Test: Combination effect of captopril and FR233074 on rat uninephrectomized anti-Thy-1 nephritis model
Type: in vivo
Conditions: for elevation in systolic blood pressure: 10 weeks after administration of the antibody, FIG. 9; for elevation in systolic blood pressure / glomerular and tubulointerstitial injury (histological observation): versus control group; for increase in urinary excretion of protein: 24-h urine up to 24 weeks after antibody, captopril 30 mg/kg/day, FR233074 20 mg/kg/day, FIG. 3; for time from the disease induction to the renal death (time point for 1/Cr=0.1): linear extrapolation from averaged 1/Cr and 1/Cr slope, FIG. 8; for rate of decline in renal function (1/Cr slope): single agents versus control, combination versus each agent alone, FIG. 7; for glomerular and tubulointerstitial injury (histological observation): FIG. 12-13
Method: Male Wistar rats (6-weeks old) were used for the example. These Wistar rats were anesthetized by administration of pentobarbital and subjected to unilateral nephrectomy. Two weeks later, these rats were injected with anti-Thy-1 antibody (gift of Department of Cell Biology, Institute of Nephrology, Niigata University Graduate School of Medical and Dental Sciences, Japan) from tail vein of them to induce anti-Thy-1 nephritis. Normal group were subjected to only ventrotomy without unilateral nephrectomy and injected with saline instead of anti-Thy-1 antibody.
One week after administration of the antibody, the rats were weighted, blood of the rats were collected (0.55 ml from subclavian vein), and 24-h urine collections were performed. Then, these rats were divided into the groups based on body weight, renal function parameters (BUN (blood urea nitrogen) and serum creatinine) and urinary excretion of protein.
The agents were administered to the rats for 23 weeks from the day of the grouping. 2, 4, 6, 8, 12, 16, 20 and 24 weeks after administration of the antibody (at 24 weeks after administration of the antibody, the administration of the agents was finished), the rats were weighted, blood of the rats were collected, 24-h urine collections were performed, and then, body weight, renal function parameters and urinary excretion of protein of the rats were determined. Systemic blood pressure of each rat was also measured at 10 weeks after administration of the antibody.
An averaged value of 1/Cr in each group at one week after disease induction was plotted, and drew down linearly, based on an averaged value of 1/Cr slope in each group. A time point for 1/Cr=0.1 was calculated, and defined as time reaching renal death (time point for 1/Cr=0.1 is one of standards for introducing dialytic therapy in clinical practice).

SMILES	elevation in systolic blood pressure	increase in urinary excretion of protein	time from the disease induction to the renal death (time point for 1/Cr=0.1)	rate of decline in renal function (1/Cr slope)	glomerular and tubulointerstitial injury (histological observation)
C[C@H](CS)C(=O)N1CCC[C@H]1C(=O)O [captopril]	suppressed	suppressed	prolonged	decreased	extent of damage was reduced
O=C(NS(=O)(=O)Cc1ccccc1)c1cccc(C[C@@H]2CCCC=C2c2nc(-c3ccccc3)c(-c3ccccc3)o2)c1 [FR233074, N-benzylsulfonyl-3-{[(1S)-2-(4,5-diphenyloxazol-2-yl)-2-cyclohexen-1-yl]methyl}benzamide]	no significant effect	suppressed	prolonged	decreased	extent of damage was reduced

— patent US20080275095A1, “Combination of Prostaglandin E2 Receptor Antagonists and Renin-Angiotensin System Inhibitors for Treating Renal Diseases” (Astellas Pharma Inc., priority 2004, published 2008)
